From patent US12077503B2, “Substituted cyclic amides and their use as herbicides” (FMC CORPORATION, priority 2015, dated 2024)

How the values were obtained:
Assay type in all cases: in vivo
[1] = system: ivy-leaved morning glory (Ipomoea hederacea); experiment: Test G Pre-Emergence Protocol; conditions: Ipomoea, pre-emergence, 312 h, evaluated after 13 days; for pest or weed control at 15.625 g/ha: 15.625 g ai/ha; for pest or weed control at 15.625 g/ha / pest or weed control at 250 g/ha: read-out: Morningglory, Ivy-leaved damage rating (100=total damage to plant; 0=no damage to plant); for pest or weed control at 62.5 g/ha: 62.5 g ai/ha, 100=total damage to plant, 0=no damage to plant, read-out: Morningglory, Ivy-leaved damage rating; for pest or weed control at 250 g/ha: 250 g ai/ha
Summary of the method: (§1)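 Under a 24/16° C day/night regime with 14 h light and 65% humidity, sown pots were sprayed after one day with compound (15.625, 62.5 or 250 g/ha; 50:50 acetone/water, 0.5% Tween 20). Damage was assessed visually 13 days later, 0 to 100.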

[2] = system: velvetleaf (Abutilon theophrasti); experiment: Test G Pre-Emergence Protocol; conditions: Abutilon theophrasti, pre-emergence, 312 h, evaluated after 13 days; for pest or weed control at 15.625 g/ha: 15.625 g ai/ha; for pest or weed control at 15.625 g/ha / pest or weed control at 250 g/ha: read-out: Velvetleaf damage rating (100=total damage to plant; 0=no damage to plant); for pest or weed control at 62.5 g/ha: 62.5 g ai/ha, 100=total damage to plant, 0=no damage to plant, read-out: Velvetleaf damage rating; for pest or weed control at 250 g/ha: 250 g ai/ha
Summary of the method: as §1

[3] = system: giant foxtail (Setaria faberi); experiment: Test G Pre-Emergence Protocol; conditions: Setaria faberi, pre-emergence, 312 h, evaluated after 13 days; for pest or weed control at 15.625 g/ha: 15.625 g ai/ha; for pest or weed control at 15.625 g/ha / pest or weed control at 250 g/ha: read-out: Foxtail, Giant damage rating (100=total damage to plant; 0=no damage to plant); for pest or weed control at 62.5 g/ha: 62.5 g ai/ha, 100=total damage to plant, 0=no damage to plant, read-out: Foxtail, Giant damage rating; for pest or weed control at 250 g/ha: 250 g ai/ha
Summary of the method: as §1

corn (Zea mays) [4] = experiment: Test G Pre-Emergence Protocol; conditions: Zea mays, pre-emergence, 312 h, evaluated after 13 days; for plant injury at 15.625 g/ha: 15.625 g ai/ha; for plant injury at 15.625 g/ha / plant injury at 250 g/ha: read-out: Corn damage rating (100=total damage to plant; 0=no damage to plant); for plant injury at 62.5 g/ha: 62.5 g ai/ha, 100=total damage to plant, 0=no damage to plant, read-out: Corn damage rating; for plant injury at 250 g/ha: 250 g ai/ha
Summary of the method: as §1

[5] = system: barnyardgrass (Echinochloa crus-galli); experiment: Test G Pre-Emergence Protocol; conditions: Echinochloa crus-galli, pre-emergence, 312 h, evaluated after 13 days; for pest or weed control at 15.625 g/ha: 15.625 g ai/ha; for pest or weed control at 15.625 g/ha / pest or weed control at 250 g/ha: read-out: Barnyardgrass damage rating (100=total damage to plant; 0=no damage to plant); for pest or weed control at 62.5 g/ha: 62.5 g ai/ha, 100=total damage to plant, 0=no damage to plant, read-out: Barnyardgrass damage rating; for pest or weed control at 250 g/ha: 250 g ai/ha
Summary of the method: as §1

[6] = system: redroot pigweed (Amaranthus retroflexus); experiment: Test G Pre-Emergence Protocol; conditions: Amaranthus retroflexus, pre-emergence, 312 h, evaluated after 13 days; for pest or weed control at 15.625 g/ha: 15.625 g ai/ha; for pest or weed control at 15.625 g/ha / pest or weed control at 250 g/ha: read-out: Pigweed, Redroot damage rating (100=total damage to plant; 0=no damage to plant); for pest or weed control at 62.5 g/ha: 62.5 g ai/ha, 100=total damage to plant, 0=no damage to plant, read-out: Pigweed, Redroot damage rating; for pest or weed control at 250 g/ha: 250 g ai/ha
Summary of the method: as §1

[7] = system: ivy-leaved morning glory (Ipomoea hederacea); experiment: Test G Post-Emergence Protocol; conditions: Ipomoea, post-emergence, 312 h, read-out: Morningglory, Ivy-leaved damage rating; for pest or weed control at 15.625 g/ha: 15.625 g ai/ha, evaluated after 13 days (100=total damage to plant; 0=no damage to plant); for pest or weed control at 62.5 g/ha: 62.5 g ai/ha; for pest or weed control at 62.5 g/ha / pest or weed control at 250 g/ha: evaluated after 13 days, 100=total damage to plant, 0=no damage to plant; for pest or weed control at 250 g/ha: 250 g ai/ha
Summary of the method: (§2)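 Damage was rated 13 days after treatment from 0 (none) to 100 (plant killed). Compound was applied as a spray at 15.625, 62.5 or 250 g/ha in 50:50 acetone/water containing 0.5% Tween 20, onto 8-day-old potted plants kept in a glasshouse (24/16 °C, 14 h light, 65% humidity).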

[8] = system: velvetleaf (Abutilon theophrasti); experiment: Test G Post-Emergence Protocol; conditions: Abutilon theophrasti, post-emergence, 312 h, read-out: Velvetleaf damage rating; for pest or weed control at 15.625 g/ha: 15.625 g ai/ha, evaluated after 13 days (100=total damage to plant; 0=no damage to plant); for pest or weed control at 62.5 g/ha: 62.5 g ai/ha; for pest or weed control at 62.5 g/ha / pest or weed control at 250 g/ha: evaluated after 13 days, 100=total damage to plant, 0=no damage to plant; for pest or weed control at 250 g/ha: 250 g ai/ha
Summary of the method: as §2

[9] = system: giant foxtail (Setaria faberi); experiment: Test G Post-Emergence Protocol; conditions: Setaria faberi, post-emergence, 312 h, read-out: Foxtail, Giant damage rating; for pest or weed control at 15.625 g/ha: 15.625 g ai/ha, evaluated after 13 days (100=total damage to plant; 0=no damage to plant); for pest or weed control at 62.5 g/ha: 62.5 g ai/ha
Summary of the method: as §2

corn (Zea mays) [10] = experiment: Test G Post-Emergence Protocol; conditions: Zea mays, post-emergence, 312 h, read-out: Corn damage rating; for plant injury at 15.625 g/ha: 15.625 g ai/ha, evaluated after 13 days (100=total damage to plant; 0=no damage to plant); for plant injury at 62.5 g/ha: 62.5 g ai/ha; for plant injury at 62.5 g/ha / plant injury at 250 g/ha: evaluated after 13 days, 100=total damage to plant, 0=no damage to plant; for plant injury at 250 g/ha: 250 g ai/ha
Summary of the method: as §2

[11] = system: barnyardgrass (Echinochloa crus-galli); experiment: Test G Post-Emergence Protocol; conditions: Echinochloa crus-galli, post-emergence, 312 h, read-out: Barnyardgrass damage rating; for pest or weed control at 15.625 g/ha: 15.625 g ai/ha, evaluated after 13 days (100=total damage to plant; 0=no damage to plant); for pest or weed control at 62.5 g/ha: 62.5 g ai/ha; for pest or weed control at 62.5 g/ha / pest or weed control at 250 g/ha: evaluated after 13 days, 100=total damage to plant, 0=no damage to plant; for pest or weed control at 250 g/ha: 250 g ai/ha
Summary of the method: as §2

[12] = system: redroot pigweed (Amaranthus retroflexus); experiment: Test G Post-Emergence Protocol; conditions: Amaranthus retroflexus, post-emergence, 312 h, read-out: Pigweed, Redroot damage rating; for pest or weed control at 15.625 g/ha: 15.625 g ai/ha, evaluated after 13 days (100=total damage to plant; 0=no damage to plant); for pest or weed control at 62.5 g/ha: 62.5 g ai/ha; for pest or weed control at 62.5 g/ha / pest or weed control at 250 g/ha: evaluated after 13 days, 100=total damage to plant, 0=no damage to plant; for pest or weed control at 250 g/ha: 250 g ai/ha
Summary of the method: as §2

[13] = evaluated after 13 days, 100=total damage to plant, 0=no damage to plant

Molecule `CN1CC(C2CCN=C(C(C)(C)C)N2)C(C(=O)Nc2ccc(F)c(F)c2F)C1=O` (centres unmarked) [Compound 1771] has a pest or weed control at 15.625 g/ha [1] of 0%, a pest or weed control at 62.5 g/ha [1] of 0% and a pest or weed control at 250 g/ha [1] of 0%. For the same molecule, the pest or weed control at 15.625 g/ha [2] was 0%, the pest or weed control at 62.5 g/ha [2] was 0% and the pest or weed control at 250 g/ha [2] was 0%. The pest or weed control at 15.625 g/ha [3] was 0%, the pest or weed control at 62.5 g/ha [3] was 0% and the pest or weed control at 250 g/ha [3] was 0%. The plant injury at 15.625 g/ha (corn (Zea mays) [4]) was 0%, the plant injury at 62.5 g/ha (corn (Zea mays) [4]) was 0% and the plant injury at 250 g/ha (corn (Zea mays) [4]) was 0%. The pest or weed control at 15.625 g/ha [5] was 0%, the pest or weed control at 62.5 g/ha [5] was 0% and the pest or weed control at 250 g/ha [5] was 0%. The pest or weed control at 15.625 g/ha [6] was 0%, the pest or weed control at 62.5 g/ha [6] was 0% and the pest or weed control at 250 g/ha [6] was 0%. For the same molecule, the pest or weed control at 15.625 g/ha [7] was 0%, the pest or weed control at 62.5 g/ha [7] was 0% and the pest or weed control at 250 g/ha [7] was 0%. It also gave a pest or weed control at 15.625 g/ha [8] of 0%, a pest or weed control at 62.5 g/ha [8] of 0% and a pest or weed control at 250 g/ha [8] of 0%. For the same molecule, the pest or weed control at 15.625 g/ha [9] was 0%, the pest or weed control at 62.5 g/ha [9, 13] was 0% and the plant injury at 15.625 g/ha (corn (Zea mays) [10]) was 0%. It also gave a plant injury at 62.5 g/ha (corn (Zea mays) [10]) of 0%, a plant injury at 250 g/ha (corn (Zea mays) [10]) of 0% and a pest or weed control at 15.625 g/ha [11] of 0%. It also gave a pest or weed control at 62.5 g/ha [11] of 0%, a pest or weed control at 250 g/ha [11] of 0% and a pest or weed control at 15.625 g/ha [12] of 0%. The pest or weed control at 62.5 g/ha [12] was 0% and the pest or weed control at 250 g/ha [12] was 0%.
For `COc1cc(C2CN(C)C(=O)C2C(=O)Nc2cccc(F)c2F)cc(OC)c1F` (centres unmarked) [Compound 1711], the pest or weed control at 15.625 g/ha [1] was 0%, the pest or weed control at 62.5 g/ha [1] was 10% and the pest or weed control at 250 g/ha [1] was 10%. For the same molecule, the pest or weed control at 15.625 g/ha [2] was 0%, the pest or weed control at 62.5 g/ha [2] was 0% and the pest or weed control at 250 g/ha [2] was 0%. For the same molecule, the pest or weed control at 15.625 g/ha [3] was 70%, the pest or weed control at 62.5 g/ha [3] was 70% and the pest or weed control at 250 g/ha [3] was 90%. It also gave a plant injury at 15.625 g/ha (corn (Zea mays) [4]) of 0%, a plant injury at 62.5 g/ha (corn (Zea mays) [4]) of 0% and a plant injury at 250 g/ha (corn (Zea mays) [4]) of 20%. The pest or weed control at 15.625 g/ha [5] was 30%, the pest or weed control at 62.5 g/ha [5] was 10% and the pest or weed control at 250 g/ha [5] was 80%. The pest or weed control at 15.625 g/ha [6] was 0%, the pest or weed control at 62.5 g/ha [6] was 0% and the pest or weed control at 250 g/ha [6] was 0%. For the same molecule, the pest or weed control at 15.625 g/ha [7] was 10%, the pest or weed control at 62.5 g/ha [7] was 30% and the pest or weed control at 250 g/ha [7] was 70%. For the same molecule, the pest or weed control at 15.625 g/ha [8] was 0%, the pest or weed control at 62.5 g/ha [8] was 0% and the pest or weed control at 250 g/ha [8] was 0%. For the same molecule, the pest or weed control at 15.625 g/ha [9] was 70%, the pest or weed control at 62.5 g/ha [9, 13] was 80% and the pest or weed control at 250 g/ha ([9]; 250 g ai/ha, evaluated after 13 days, 100=total damage to plant, 0=no damage to plant) was 80%. It also gave a plant injury at 15.625 g/ha (corn (Zea mays) [10]) of 0%, a plant injury at 62.5 g/ha (corn (Zea mays) [10]) of 10% and a plant injury at 250 g/ha (corn (Zea mays) [10]) of 40%. The pest or weed control at 15.625 g/ha [11] was 30%, the pest or weed control at 62.5 g/ha [11] was 70% and the pest or weed control at 250 g/ha [11] was 80%. The pest or weed control at 15.625 g/ha [12] was 0%, the pest or weed control at 62.5 g/ha [12] was 0% and the pest or weed control at 250 g/ha [12] was 0%.
